According to ChEMBL document CHEMBL1124907, “Synthesis and antiviral activity of some 3'-C-difluoromethyl and 3'-deoxy-3'-C-fluoromethyl nucleosides” (J Med Chem, 1990):
Values after ≈ are worked out from the molar mass of the structure shown.

Legend:
[1] = tested on: MT4; assay: Inhibitory effect on human immunodeficiency virus type-1 (HIV-1) in MT-4 cells; format: functional; conditions: read-out: ID50 (the source's name)
[2] = tested on: CV-1; assay: Inhibitory effect on Varicella zoster virus in CV-1 cells; format: functional, cell-based, Cercopithecidae; conditions: Chlorocebus aethiops

Structure (SMILES) | IC50 [1] [nM] | IC50 [2] [µg/mL]
Cc1cn([C@H]2C[C@H](F)[C@@H](CO)O2)c(=O)[nH]c1=O [ALOVUDINE] | 50 | –
O=c1[nH]c(=O)n(C2O[C@H](CO)[C@H](CF)[C@@H]2F)cc1I (some centres not stated) | – | 5.3 (≈ 13.7 µM)
